“And” between values parts separate entries of the source, which are not always exact repeats. Equal values may be shown once. Where a name gives a salt, the structure may show the parent alone. Read-outs that look alike come from different tables or passages of the source.
Columns and labels:
acetylcholine = assay: Inhibition of acetylcholine-induced bronchoconstriction by aerosol, anesthetized guinea pigs; type: in vivo
Method: (§1) Anesthetized (Pentobarbitol-urethane) guinea pigs were artificially respired at a constant positive air pressure (Starling miniature pump) and changes in tidal air during inspiration were recorded, according to the method of Rosenthale et al., Int. Arch. Pharmacol., 172, 91 (1968). The bronchoconstrictor agents acetylcholine and histamine were administered intravenously at doses of 1 to 30 μg/kg. depending on each animal's sensitivity to these compounds, and control responses to acetylcholine and histamine were thus established. Bronchoconstrictor agents raise the resistance of the lungs to inflation thereby decreasing the tidal air flow. A solution of the test compound was then administered by aerosol, in physiological saline or distilled water, and the animals were then challenged again with acetylcholine or histamine and the degree of inhibition of bronchoconstriction by the test compound was thus determined.

smooth muscle = conditions: cited from earlier work
histamine = assay: Inhibition of histamine-induced bronchoconstriction by aerosol, anesthetized guinea pigs; type: in vivo
Method: as §1

[1] = cited from earlier work
[2] = test system: cholinergic-induced bronchoconstriction; assay: Effect of drugs on cholinergic-induced bronchoconstriction in the cat (aerosol); type: in vivo; conditions: as cation, mean ± S.E.
Method: Cats of either sex were anesthetized and respiration was arrested by the administration of an intravenous infusion of 1 mg/ml/min of succinylcholine chloride. The animals were artificially respired with a Harvard pump. A neostigmine methylsulfate solution (0.1 mg/ml) was infused intravenously at a rate of 1 ml/min until maximal or complete bronchoconstriction occurred, but the experiment was not begun until a stable state was attained. The respiratory flow was measured with a Fleisch pneumotachograph and a differential pressure transducer. Transpulmonary pressure was measured with a differential pressure transducer bridged between the trachea and the intrapleural space. Pulmonary airway resistance and compliance was measured by a modification of the Mead & Whittenberger electronic subtraction method using the Hewlett-Packard respiratory pre-amplifier or the isovolumetric method using the Buxco Pulmonary mechanics computer [Rosenthale et al., J. Pharmacol. Exp. Ther., 178, 541, (1971)].
Drugs were administered as cation as an aerosol by means of a Monaghan ultrasonic nebulizer. The dosage was varied by adjusting the concentration of the solution. Activity was measured by the ability of the drug to reverse the increased airway resistance and decreased compliance characteristic of cholinergic stimulation induced by succinylcholine and neostigmine.

[3] = 0.15 μg as cation, distilled water
[4] = 1.5 μg as cation, distilled water
[5] = 15.0 μg as cation, distilled water
[6] = 15.0 μg as cation, physiological saline
[7] = 1.5 μg as cation, physiological saline
[8] = 0.1 μg, listed as Promethazine methyl iodide
[9] = 1.0 μg, listed as Promethazine methyl iodide
[10] = 10.0 μg, listed as Promethazine methyl iodide
[11] = 100.0 μg, listed as Promethazine methyl iodide
[12] = 0.1 μg, listed as Promethazine methyl chloride
[13] = 1.0 μg, listed as Promethazine methyl chloride
[14] = 10.0 μg, listed as Promethazine methyl chloride
[15] = 100.0 μg, listed as Promethazine methyl chloride

Compound	Mean % Inhibition (±S.E.) vs. Acetylcholine (acetylcholine; [3])	Mean % Inhibition (±S.E.) vs. Acetylcholine (acetylcholine; [4])	Mean % Inhibition (±S.E.) vs. Acetylcholine (acetylcholine; [5])	Mean % Inhibition (±S.E.) vs. Histamine (histamine; [5])	Mean % Inhibition (±S.E.) vs. Histamine (histamine; [6])	Mean % Inhibition (±S.E.) vs. Acetylcholine (acetylcholine; [6])	also measured
CC(CN1c2ccccc2Sc2ccccc21)[N+](C)(C)C (racemic) [CH3 / Br, dl-Trimethyl[1-Methyl-2-(Phenothiazin-10-yl)Ethyl]Ammonium Bromide]	0%	38.75 (9.26) %	99.0 (1.0) %				
CNC[C@H](O)c1ccc(O)c(O)c1 [epinephrine]							smooth muscle relaxation (smooth muscle): smooth muscle relaxant
CCC[N+](C)(C)C(C)CN1c2ccccc2Sc2ccccc21 (racemic) [n-C3 H7 / I, dl-N,N,α-Trimethyl-N-n-Propyl-10H-Phenothiazine-10-Ethanaminium Iodide]	5.5 (3.20) %	43.75 (6.51) %	84.0 (6.56) %	68.0 (8.14) %			
CCCC[N+](C)(C)C(C)CN1c2ccccc2Sc2ccccc21 (racemic) [n-C4 H9 / I, dl-N-n-Butyl,N,N,α-Trimethyl-10H-Phenothiazine-10-Ethanaminium Iodide]	0%	39.25 (2.53) %	52.0 (6.35) %	66.33 (2.96) %			
CC[N+](C)(C)C(C)CN1c2ccccc2Sc2ccccc21 (racemic) [C2 H 5 / I, dl-N-Ethyl-N,N,α-Trimethyl-10H-Phenothiazine-10-Ethanaminium Iodide]	20.0 (7.70) %	62.75 (10.63) %	98.66 (1.33) %	78.67 (8.74) %			
CC(CN1c2ccccc2Sc2ccccc21)[N+](C)(C)C (racemic) [CH3 / NO3, dl-Trimethyl[1-Methyl-2-(Phenothiazin-10-yl)Ethyl]Ammonium Nitrate]	12.0 (6.26) %	43.5 (10.33) %	100 (0) %				
CC(CN1c2ccccc2Sc2ccccc21)[N+](C)(C)C (stereo not drawn) [CH'3 / I, d-trimethyl[1-methyl-2-(phenothiazin-10-yl)ethyl]ammonium iodide]					82%	97%	
CN[C@@H](C)[C@H](O)c1ccccc1 [ephedrine]							smooth muscle relaxation (smooth muscle): smooth muscle relaxant; bronchodilator activity ([1]; aerosol): not by aerosol; bronchodilator activity ([1]; oral): orally active bronchodilator
CC(CN1c2ccccc2Sc2ccccc21)[N+](C)(C)C (racemic) [CH3 / I, dl-trimethyl[1-methyl-2-(phenothiazin-10-yl)ethyl]ammonium iodide]	20.0 (13.38) %	47.0 (7.59) %	98.66 (1.33) %	98.0 (1.0) %	97.5% and 98.66 (1.33) %	99.0 (1.0) % and 99.3 (0.67) %	Mean % Inhibition (±S.E.) vs. Histamine (histamine; 0.15 μg as cation, physiological saline): 15.33 (6.96) %; Mean % Inhibition (±S.E.) vs. Histamine (histamine; [7]): 49.0 (11.14) %; Mean % Inhibition (±S.E.) vs. Acetylcholine (acetylcholine; [7]): 62.38 (4.67) % and 62.75 (11.89) %; Pulmonary Compliance % Protection [2, 8]: 5.8±3.6%; Pulmonary Resistance % Protection [2, 8]: 14.3±1.1%; Duration 50% (time to return to 50% of control constricted state) ([2]; 0.1 μg, methyl chloride done in 3 cats, listed as Promethazine methyl iodide): 6.7 ± 3.2 min; Duration 50% (time to return to 50% of control constricted state) [2, 9]: 11.3 ± 2.0 min; Pulmonary Compliance % Protection [2, 9]: 3.7± .52%; Pulmonary Resistance % Protection [2, 9]: 39.4±2.1%; Duration 50% (time to return to 50% of control constricted state) [2, 10]: 21.2 ± 6.8 min; Pulmonary Compliance % Protection [2, 10]: 15.5±6.0%; Pulmonary Resistance % Protection [2, 10]: 48.5±3.3%; Duration 50% (time to return to 50% of control constricted state) [2, 11]: 46.1 ± 9.7 min; Pulmonary Compliance % Protection [2, 11]: 26.4±4.1%; Pulmonary Resistance % Protection [2, 11]: 78.1±4.4%
Cn1c(=O)c2[nH]cnc2n(C)c1=O [aminophylline]							bronchial smooth muscle relaxation (smooth muscle; in vitro or by injection in vivo): can relax bronchial smooth muscle in vitro or by injection in vivo; bronchodilator activity ([1]; aerosol): inactive as a bronchodilator aerosol
CC(CN1c2ccccc2Sc2ccccc21)[N+](C)(C)C (racemic) [CH3 / CH3 SO4, dl-Trimethyl[1-Methyl-2-(Phenothiazine-10-yl)Ethyl]Ammonium Methyl Sulfate]					98%	86%	
CC(CN1c2ccccc2Sc2ccccc21)[N+](C)(C)C (racemic) [CH3 / Cl, dl-Trimethyl[1-Methyl-2-(Phenothiazin-10-yl)Ethyl]Ammonium Chloride]		24.25 (10.21) % and 26.67 (6.77) %	86.3 (10.37) % and 100 (0) %	98.2 (1.8) %			Pulmonary Compliance % Protection [2, 12]: 6.8±4.1%; Pulmonary Resistance % Protection [2, 12]: 8.8±7.7%; Duration 50% (time to return to 50% of control constricted state) ([2]; 0.1 μg, methyl chloride done in 3 cats, listed as Promethazine methyl chloride): 2.7 ± 1.5 min; Duration 50% (time to return to 50% of control constricted state) [2, 13]: > 10 min; Pulmonary Compliance % Protection [2, 13]: 7.8±4.1%; Pulmonary Resistance % Protection [2, 13]: 17.2±2.8%; Duration 50% (time to return to 50% of control constricted state) [2, 14]: 21.0 ± 4.0 min; Pulmonary Compliance % Protection [2, 14]: 71.4±51.1%; Pulmonary Resistance % Protection [2, 14]: 50.0±4.6%; Duration 50% (time to return to 50% of control constricted state) [2, 15]: > 60 min; Pulmonary Compliance % Protection [2, 15]: 60.8±25.7%; Pulmonary Resistance % Protection [2, 15]: 72.8±2.1%
CC(CN1c2ccccc2Sc2ccccc21)[N+](C)(C)C (stereo not drawn) [CH"3 / I, l-Trimethyl[1-Methyl-2-(Phenothiazine-10-yl)Ethyl]Ammonium Iodide]					95 (4.66) %	81%	

Reference: patent US4097596A, “Inhalation therapy for relieving bronchial spasm using quaternary salts of promethazine” (American Home Products Corporation, priority 1976, dated 1978)
